biological target: T1, NAD-dependent protein deacetylase sirtuin-2 (Homo sapiens, UniProt Q8IXJ6); experiment: Inhibition of human recombinant Sirt2 using ZMAL as substrate after 4 hrs by fluorescent deacetylase assay; conditions: read-out: IC50
T1 sequence (Q8IXJ6 whole entry): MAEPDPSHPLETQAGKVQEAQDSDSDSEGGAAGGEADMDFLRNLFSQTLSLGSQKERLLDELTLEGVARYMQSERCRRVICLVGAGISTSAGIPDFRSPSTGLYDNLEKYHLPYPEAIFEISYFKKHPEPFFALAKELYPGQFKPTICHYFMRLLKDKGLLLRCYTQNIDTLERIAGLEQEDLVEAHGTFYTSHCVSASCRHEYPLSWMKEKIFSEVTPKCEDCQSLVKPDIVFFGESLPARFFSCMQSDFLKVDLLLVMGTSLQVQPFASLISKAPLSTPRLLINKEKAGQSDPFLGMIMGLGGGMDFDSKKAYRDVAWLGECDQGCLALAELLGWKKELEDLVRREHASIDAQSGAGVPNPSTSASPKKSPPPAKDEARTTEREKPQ

Row | Compound | IC50 [µM]
1 | O=C1NC(=S)NC(=O)C1=Cc1ccc(-c2ccc(Cl)cc2)o1 | 6.5
2 | O=C1NC(=S)NC(=O)C1=Cc1ccc(-c2ccc(Cl)c(Cl)c2)o1 | 1.5
3 | C=CCN1C(=O)/C(=C/c2ccc(-c3cccc(Cl)c3Cl)o2)C(=O)NC1=S | 2.8
4 | CC(C)Oc1ccc(C=C2C(=O)NC(=S)NC2=O)cc1 | 5.8
5 | COc1ccc(CC2C(=O)NC(=S)NC2=O)cc1OCc1ccccc1 | 5.8
6 | CCOc1ccc(C=C2C(=O)NC(=S)NC2=O)cc1CCc1ccccc1 | 4.9
7 | O=C1NC(=S)NC(=O)C1=Cc1cc(OCc2ccc(Br)cc2)ccc1Cl | 1.8
8 | O=C1NC(=S)NC(=O)C1=Cc1ccc(OCc2ccccc2)c(OCc2ccccc2)c1 | 3.9
9 | O=C1NC(=S)NC(=O)C1=Cc1ccc(OCc2cccc3ccccc23)cc1 | 2.6
10 | CC(=O)c1ccc(-c2ccc(C=C3C(=O)NC(=S)NC3=O)o2)cc1 | 5.5
11 | O=C1NC(=S)NC(=O)C1=Cc1ccc(-c2ccc(C(=O)OCc3cccc(Cl)c3)cc2)o1 | 2.2
12 | O=C1NC(=S)NC(=O)C1=Cc1cn(-c2ccccc2)nc1-c1ccc(Cl)cc1 | 3.8
13 | O=C1NC(=S)NC(=O)C1=Cc1ccc(Sc2ccccc2)o1 | 3.5
14 | COC(=O)c1ccc(-c2ccc(C=C3C(=O)NC(=S)NC3=O)o2)cc1 | 5.7

same assay, conditions: read-out: pIC50 (converted)

Row | Compound | IC50 [µM]
15 | O=C1NC(=S)NC(=O)C1=Cc1ccc(-c2ccc(Cl)cc2)o1 | 2.19
16 | O=C1NC(=S)NC(=O)C1=Cc1ccc(-c2ccc(C(=O)OCc3cccc(Cl)c3)cc2)o1 | 6.46

From ChEMBL document CHEMBL3217470, “Binding free energy calculations and biological testing of novel thiobarbiturates as inhibitors of the human NAD+dependent histone deacetylase Sirt2” (Medchemcomm, 2012)
